# Source: ChEMBL document CHEMBL4665650, “Towards a TREK-1/2 (TWIK-Related K+ Channel 1 and 2) dual activator tool compound: Multi-dimensional optimization of BL-1249” (Bioorg Med Chem Lett, 2019)
# What was measured:
# [1] = target: T1, Potassium channel subfamily K member 10 (Homo sapiens) (UniProt P57789); assay: Activation of human TREK2 at 30 uM by thallium flux mobilization assay relative to control
# T1 sequence (whole entry): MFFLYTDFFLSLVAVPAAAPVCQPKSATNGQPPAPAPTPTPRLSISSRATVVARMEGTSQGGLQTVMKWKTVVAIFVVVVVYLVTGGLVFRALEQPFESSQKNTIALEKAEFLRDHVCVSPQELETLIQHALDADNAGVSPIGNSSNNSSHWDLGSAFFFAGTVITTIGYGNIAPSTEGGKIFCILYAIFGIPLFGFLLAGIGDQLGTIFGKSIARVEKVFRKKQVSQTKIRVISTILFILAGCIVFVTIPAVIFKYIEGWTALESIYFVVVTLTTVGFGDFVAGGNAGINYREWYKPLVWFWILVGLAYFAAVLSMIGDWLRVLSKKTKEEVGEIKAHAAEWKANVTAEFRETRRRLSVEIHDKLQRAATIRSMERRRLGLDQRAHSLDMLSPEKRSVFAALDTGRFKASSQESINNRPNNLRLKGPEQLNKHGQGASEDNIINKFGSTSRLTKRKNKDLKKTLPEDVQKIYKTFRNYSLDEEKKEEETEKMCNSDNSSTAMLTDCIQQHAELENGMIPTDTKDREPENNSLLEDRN
# [2] = target: T2, Potassium channel subfamily K member 2 (Homo sapiens) (UniProt O95069); assay: Activation of human TREK1 at 30 uM by thallium flux mobilization assay relative to control
# T2 sequence (whole entry): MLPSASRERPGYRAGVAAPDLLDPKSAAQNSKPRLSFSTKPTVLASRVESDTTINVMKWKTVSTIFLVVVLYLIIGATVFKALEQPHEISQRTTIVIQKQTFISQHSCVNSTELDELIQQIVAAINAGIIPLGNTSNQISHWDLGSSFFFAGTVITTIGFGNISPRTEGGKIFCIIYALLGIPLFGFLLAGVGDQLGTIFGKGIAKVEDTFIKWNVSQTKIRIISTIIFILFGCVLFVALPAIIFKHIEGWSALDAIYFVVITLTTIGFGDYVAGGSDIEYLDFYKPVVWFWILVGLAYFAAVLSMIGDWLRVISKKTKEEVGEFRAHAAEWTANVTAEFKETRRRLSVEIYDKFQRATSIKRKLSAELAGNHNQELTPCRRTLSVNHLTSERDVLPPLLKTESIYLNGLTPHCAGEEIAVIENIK
# [3] = target: T1, Potassium channel subfamily K member 10 (Homo sapiens); assay: Activation of human TREK2 at 10 uM by thallium flux mobilization assay relative to control
# [4] = target: T2, Potassium channel subfamily K member 2 (Homo sapiens); assay: Activation of human TREK1 at 10 uM by thallium flux mobilization assay relative to control
# [5] = Fraction unbound in mouse plasma; assay type: ADME, cell-free
# [6] = Fraction unbound in rat plasma; assay type: ADME, cell-free
# [7] = Fraction unbound in human plasma; assay type: ADME, cell-free
# [8] = target: T3, Potassium channel subfamily K member 10 (Homo sapiens, UniProt P57789); assay: Activation of human TREK2 by thallium flux mobilization assay
# T3 sequence (P57789 whole entry): T1 sequence (whole entry)
# [9] = target: T4, Potassium channel subfamily K member 2 (Homo sapiens, UniProt O95069); assay: Activation of human TREK1 by thallium flux mobilization assay
# T4 sequence (O95069 whole entry): T2 sequence (whole entry)
Compound,Activity [1],Activity [2],Activity ([2]; filed as activator),EC50 [8],EC50 [9],other results
O=C(O)Cc1cccc(NC(=O)c2cccc(C(F)(F)F)c2)c1,1%,-1%,,,,
O=C(Nc1ccccc1C(=O)O)c1cccc(SC(F)(F)F)c1,17%,40%,,,,
O=C(Nc1ccccc1-c1nnn[nH]1)c1cccc2c1CCCC2,,,,,,Activity [3]: 2%; Activity [4]: 6%
O=C(Nc1ccccc1C(=O)O)c1cccc(C(F)(F)F)c1,12%,28%,,,,
O=C(O)c1cccc(NC(=O)c2ccccc2C(F)(F)F)c1,-1%,-14%,,,,
O=C(Nc1ccc(Br)cc1C(=O)O)c1ccc(SC(F)(F)F)cc1,,,114%,7.7 µM,5.9 µM,fraction unbound [5]: 0.029; fraction unbound [6]: 0.013; Activity ([1]; filed as activator): 101%; fraction unbound [7]: 0.003
O=C(O)Cc1ccccc1NC(=O)c1ccc(C(F)(F)F)cc1,0%,-6%,,,,
O=C(Nc1cc(Br)ccc1C(=O)O)c1ccc(SC(F)(F)F)cc1,,,76%,5.9 µM,4.3 µM,Activity ([1]; filed as activator): 74%
O=C(Nc1sccc1C(=O)O)c1ccc(SC(F)(F)F)cc1,28%,,58%,> 30 µM,> 30 µM,
O=C(O)Cc1cccc(NC(=O)c2ccccc2C(F)(F)F)c1,0%,2%,,,,
O=C(Nc1cccc2c1CCCC2)c1ccccc1-c1nnn[nH]1,,,,,,Activity [3]: 1%; Activity [4]: 0%
O=C(Nc1ccoc1C(=O)O)c1ccc(SC(F)(F)F)cc1,5%,8%,,,,
O=C(Nc1sc(-c2ccccc2)cc1C(=O)O)c1ccc(SC(F)(F)F)cc1,,,83%,> 30 µM,22.4 µM,Activity ([1]; filed as activator): 49%
O=C(Nc1ccccc1C(=O)O)c1ccc(C(F)(F)F)cc1,12%,28%,,,,
O=C(O)Cc1ccccc1NC(=O)c1ccccc1C(F)(F)F,-1%,4%,,,,
O=C(O)c1ccccc1NC(=O)c1ccccc1C(F)(F)F,-3%,1%,,,,
O=C(Nc1ccc(OC(F)(F)F)cc1C(=O)O)c1ccc(SC(F)(F)F)cc1,,,57%,5.6 µM,4.6 µM,Activity ([1]; filed as activator): 60%
O=C(Nc1cc(Cl)ccc1C(=O)O)c1ccc(SC(F)(F)F)cc1,,,66%,7.5 µM,4.4 µM,Activity ([1]; filed as activator): 73%
